How the values were obtained:
[1] = SnCl2.2H2O/pyrophosphate solutions: appearance on preparation and aging at room temperature; format: physicochemical; details: 3% SnCl2.2H2O; aged overnight at room temperature
Experimental: Solutions are prepared by dissolving TSPP in deionized water (mixing under heat if necessary) and then adding 0.6 g of SnCl2.2H2O to make 20-gram solutions.
The solutions with a P/Sn molar ratio spanning from 0.5 to 5 containing 3% SnCl2.2H2O are aged overnight at room temperature. A 3% SnCl2.2H2O solution is used as a control.
Solutions are prepared by dissolving TKPP in deionized water (mixing under heat if necessary) and then adding 0.6 g SnCl2.2H2O to make 20-g solutions.

[2] = Solution preparation: clarity / dissolution of SnF2 with TSPP or TKPP in water; format: physicochemical; details: 2% SnF2 in water with TSPP or TKPP; as prepared
Experimental: The solutions are prepared by first dissolving TSPP or TKPP in water (mixing under high heat if necessary) and then adding a 20% stannous fluoride solution to the clear solution with an automatic pipet. […] All of the solutions contain 2% SnF2.

Compound	appearance after aging overnight [1]	appearance / dissolution of the solution on preparation [2]
O.O.[Cl][Sn][Cl] [3% SnCl2.2H2O solution, SnCl2.2H2O]	cloudy precipitate that settles	
[F][Sn][F] [2% stannous fluoride solution, stannous fluoride]		precipitate almost immediately after dissolution

Source: patent publication US10500142B2, “Oral care compositions” (COLGATE-PALMOLIVE COMPANY, priority 2015, dated 2019)
